The numbers were not newly measured in patent US12653912B2 (SHENZHEN CHINA RESOURCES JIUCHUANG MEDICAL AND …, priority 2020, dated 2026), which cites them from elsewhere.

The conditions of this data set: 75 mg/m^2, intravenous bolus injecting.

The structures appear in SMILES notation.

A word on the AUC: it is the area under the concentration-time curve, a measure of exposure. Turning to `O=C1c2c(O)ccc(O)c2C(=O)c2c(NCCNCCO)ccc(NCCNCCO)c21` [mitoxantrone], the “AUC at the maximum tolerated total dosage” value is 560 to 1700 ng·h/mL.
